Measured values: patent publication US11944090B2, “Compositions and methods for attracting fire ants” (The United States of America, as represented by The …, priority 2021, dated 2024)
“And” between values parts separate entries of the source, which are not always exact repeats. Identical values can stand only once. “Also recorded” adds a separate entry of the source.

Experiments:
fire ants [1] = assay: Field multiple-choice feeding bioassay (soybean oil consumption); type: in vivo, Solenopsis invicta; settings: for difference among treatments and control in oil consumption / feeding preference on soybean oil (one-way ANOVA): all tested concentrations of each compound in soybean oil, field multiple-choice; for concentration at which oil consumption was numerically the highest: multiple-choice bioassay of known attractants; for concentration at which the effect on oil consumption was statistically significant compared to the control oil: Tukey's HSD; for effect of different concentrations on oil consumption (one-way ANOVA): first multiple-choice bioassay: 10-oxo 9.09, 4.54, 2.27, 1.14 mg/g, 11-oxo 8.62, 4.31, 2.15, 1.08 mg/g
Description: Multiple-choice and a paired two-choice bioassays were used in this study. A schematic representation of the bioassay set-ups is depicted in FIG. 19. Soybean oil was used as a food source for all the bioassays (Great Value, purchased from Walmart in Greenville Mississippi). The feeding apparatus was a filtered 1-ml pipette tip with the part 0.5 cm below the filter removed. In multiple-choice bioassays, four to six concentrations of tested compounds were tested with untreated soybean oil as a control, and in two-choice bioassays, the compound at certain concentration was tested against the control oil or oil treated with known fire ant attractant. Eighty microliter soybean oil was loaded onto each filter. After being weighed, the apparatuses with oil were placed in the field for about 2 hours. The apparatuses were then collected and frozen under −40° C. to kill all ants. The apparatuses were weighed again after all ants were removed from the apparatuses. The difference in the weight of apparatuses before and after the feeding bioassays was the oil consumption. There were six to 10 replicates for each bioassay. Feeding sites were at least 10 m away from each other. The difference in oil consumption among/between treatment and control apparatuses was used to evaluate the effect of tested compound on the feeding of fire ants. For multiple-choice bioassays, a one-way ANOVA was performed to compare the effect of different concentrations of tested compound on the percentage of oil consumption. Tukey's HSD test was used for multiple comparisons. A paired t test was used in statistical analysis for the two-choice bioassays. For each fatty acid, eight concentrations were tested in two separate multiple-choice bioassays. For 10-oxo-dodecnoic acid, the first set used in the multiple-choice bioassay included concentrations of 0.00 mg/g (control), 9.09 mg/g, 4.54 mg/g, 2.27 mg/g, and 1.14 mg/g, and the second set included 0.00 mg/g, […], 0.28 mg/g, 0.142 mg/g, and 0.07 mg/g. There were seven replicates for each set of bioassay. For 11-oxo-dodecnoic acid, the first set used in the multiple-choice bioassay included concentrations of 0.00 mg/g, 8.62 mg/g, 4.31 mg/g, 2.15 mg/g, and 1.08 mg/g, and the second set included 0.00 mg/g, 0.54 mg/g, 0.27 mg/g, 0.14 mg/g, and 0.07 mg/g. There were six replicates for the first set of bioassay and seven replicates for the second set of bioassay. Five oxo fatty acid analogs were tested in the filed using two-choice or multiple-choice bioassays. Tested were 8-oxo-decanoic acid, 9-oxo-2-decenoic acid, 9-oxo-decanoic acid, 11-oxo-tridecanoic acid, and 12-oxo-tetradecanoic acid. Eight oxo-decanoic acid was tested in a multiple-choice bioassay at 6 different concentrations including 0.00 mg/g, 0.81 mg/g, 0.41 mg/g, 0.20 mg/g, 0.10 mg/g, and 0.05 mg/g. There were 10 replicates for the bioassay. For 9-oxo-2-decenoic acid, a two-choice bioassay was conducted with each of the following six concentrations: 0.39 mg/g, 0.197 mg/g, 0.098 mg/g, 0.049 mg/g, 0.025 mg/g, and 0.012 mg/g. There were 5 to 7 replicates for each two-choice bioassay. For 9-oxo-decanoic acid, a multiple-choice bioassay was conducted at six concentrations including 0.00 mg/g, 0.124 mg/g, 0.062 mg/g, 0.031 mg/g, 0.016 mg/g, and 0.007 mg/g. There were 11 replicates. For 11-oxo-tridecanoic acid, a multiple-choice bioassay was conducted at five concentrations including 0.00 mg/g, 7.71 mg/g, 3.86 mg/g, 1.93 mg/g, and 0.96 mg/g. There were 6 replicates. For 12-oxo-tetradecanoic acid, a multiple-choice bioassay was conducted at six concentrations including 0.00 mg/g, 1.15 mg/g, 0.58 mg/g, 0.29 mg/g, 0.14 mg/g, and 0.07 mg/g. There were 7 replicates.

fire ants [2] = assay: Field paired two-choice feeding bioassay (soybean oil consumption); type: in vivo, Solenopsis invicta
Description: Multiple-choice and a paired two-choice bioassays were used in this study. A schematic representation of the bioassay set-ups is depicted in FIG. 19. Soybean oil was used as a food source for all the bioassays (Great Value, purchased from Walmart in Greenville Mississippi). The feeding apparatus was a filtered 1-ml pipette tip with the part 0.5 cm below the filter removed. In multiple-choice bioassays, four to six concentrations of tested compounds were tested with untreated soybean oil as a control, and in two-choice bioassays, the compound at certain concentration was tested against the control oil or oil treated with known fire ant attractant. Eighty microliter soybean oil was loaded onto each filter. After being weighed, the apparatuses with oil were placed in the field for about 2 hours. The apparatuses were then collected and frozen under −40° C. to kill all ants. The apparatuses were weighed again after all ants were removed from the apparatuses. The difference in the weight of apparatuses before and after the feeding bioassays was the oil consumption. There were six to 10 replicates for each bioassay. Feeding sites were at least 10 m away from each other. The difference in oil consumption among/between treatment and control apparatuses was used to evaluate the effect of tested compound on the feeding of fire ants. For multiple-choice bioassays, a one-way ANOVA was performed to compare the effect of different concentrations of tested compound on the percentage of oil consumption. Tukey's HSD test was used for multiple comparisons. A paired t test was used in statistical analysis for the two-choice bioassays.
Five oxo fatty acid analogs were tested in the filed using two-choice or multiple-choice bioassays. Tested were 8-oxo-decanoic acid, 9-oxo-2-decenoic acid, 9-oxo-decanoic acid, 11-oxo-tridecanoic acid, and 12-oxo-tetradecanoic acid. Eight oxo-decanoic acid was tested in a multiple-choice bioassay at 6 different concentrations including 0.00 mg/g, 0.81 mg/g, 0.41 mg/g, 0.20 mg/g, 0.10 mg/g, and 0.05 mg/g. There were 10 replicates for the bioassay. For 9-oxo-2-decenoic acid, a two-choice bioassay was conducted with each of the following six concentrations: 0.39 mg/g, 0.197 mg/g, 0.098 mg/g, 0.049 mg/g, 0.025 mg/g, and 0.012 mg/g. There were 5 to 7 replicates for each two-choice bioassay. For 9-oxo-decanoic acid, a multiple-choice bioassay was conducted at six concentrations including 0.00 mg/g, 0.124 mg/g, 0.062 mg/g, 0.031 mg/g, 0.016 mg/g, and 0.007 mg/g. There were 11 replicates. For 11-oxo-tridecanoic acid, a multiple-choice bioassay was conducted at five concentrations including 0.00 mg/g, 7.71 mg/g, 3.86 mg/g, 1.93 mg/g, and 0.96 mg/g. There were 6 replicates. For 12-oxo-tetradecanoic acid, a multiple-choice bioassay was conducted at six concentrations including 0.00 mg/g, 1.15 mg/g, 0.58 mg/g, 0.29 mg/g, 0.14 mg/g, and 0.07 mg/g. There were 7 replicates.
The following paired two-choice bioassays were conducted: 1) 10-oxo-dodecanoic acid at 1.14 mg/g vs trans, trans-2,4-heptadienal at 0.19 mg/g; 2) 11-oxo-dodecanoic acid at 1.08 mg/g vs trans, trans-2,4-heptadienal at 0.19 mg/g; 3) 10-oxo-dodecanoic acid at 1.14 mg/g vs 2-ethyl-3,6 (5)-dimethylpyrazine at 0.004 mg/g; 4) 11-oxo-dodecanoic acid at 1.08 mg/g vs 2-ethyl-3,6 (5)-dimethylpyrazine at 0.004 mg/g. The results are shown in Table 2 below, and FIG. 29A to FIG. 29D.

fire ants [3] = settings: Vander Meer et al., 2009; cited from earlier work
worker fire ants = assay: Attraction bioassay (paired two choice, treated tube vs acetone control); type: in vivo, S. invicta; settings: individual oxo acids, 20 μl acetone solution: 2.029 mg/ml 10-oxo-dodecanoic acid, 1.96 mg/ml 11-oxo-dodecanoic acid; host tray; 1 hour; paired t test
fire ants [4] = assay: Feeding bioassay (laboratory paired two-choice, treated vs untreated soybean oil); type: in vivo, S. invicta; settings: soybean oil with 1.90 μg/mg 10-oxo-dodecanoic acid, 7.273 μg/mg 11-oxo-dodecanoic acid, or 0.36 μg/mg mixture (38.12%/61.88%) vs untreated oil; 24 hours; paired t test
[5] = Bioassay 3: 10-oxo-dodecanoic acid 1.14 mg/g vs 2-ethyl-3,6 (5)-dimethylpyrazine 0.004 mg/g
[6] = Bioassay 3: 10-oxo-dodecanoic acid at 1.14 mg/g vs 2-ethyl-3,6 (5)-dimethylpyrazine at 0.004 mg/g
[7] = Bioassay 4: 11-oxo-dodecanoic acid 1.08 mg/g vs 2-ethyl-3,6 (5)-dimethylpyrazine 0.004 mg/g
[8] = Bioassay 4: 11-oxo-dodecanoic acid at 1.08 mg/g vs 2-ethyl-3,6 (5)-dimethylpyrazine at 0.004 mg/g
[9] = Bioassay 1: 10-oxo-dodecanoic acid 1.14 mg/g vs trans, trans-2,4-heptadienal 0.19 mg/g
[10] = Bioassay 1: 10-oxo-dodecanoic acid at 1.14 mg/g vs trans, trans-2,4-heptadienal at 0.19 mg/g
[11] = Bioassay 2: 11-oxo-dodecanoic acid 1.08 mg/g vs trans, trans-2,4-heptadienal 0.19 mg/g
[12] = Bioassay 2: 11-oxo-dodecanoic acid at 1.08 mg/g vs trans, trans-2,4-heptadienal at 0.19 mg/g
[13] = first multiple-choice bioassay (about 1 to 9 mg/g)
[14] = control 0.00 mg/g, field, about 2 hours

2-ethyl-3,6 (5)-dimethylpyrazine [reference compound]
difference among treatments and control in oil consumption / feeding preference on soybean oil (one-way ANOVA) (fire ants [1]): significant difference
concentration at which oil consumption was numerically the highest (fire ants [1]): 0.004 mg/g
concentration that significantly improved the feeding preference of fire ant on soybean oil (fire ants [1]; multiple-choice, 0.064 to 0.002 mg/g tested): 0.002 mg/g and 0.004 mg/g
difference in the effect on oil consumption between the two compounds (fire ants [2]; [5]): significantly higher oil consumption
Mean oil consumption (fire ants [2]; [6]): 19.53 mg
difference in the effect on oil consumption between the two compounds (fire ants [2]; [7]): significantly higher oil consumption
Mean oil consumption (fire ants [2]; [8]): 21.75 mg
concentration mostly preferred by fire ants (fire ants [3]): 30 ng/µL

CC(=O)CCCCCCCC(=O)O [9-oxo-decanoic acid]
difference among treatments and control in oil consumption / feeding preference on soybean oil (one-way ANOVA) (fire ants [1]): no significant difference

CC/C=C/C=C/C=O [trans, trans-2,4-heptadienal, reference compound]
difference among treatments and control in oil consumption / feeding preference on soybean oil (one-way ANOVA) (fire ants [1]): did not significantly improve; also recorded: not significantly different
concentration at which oil consumption was numerically the highest (fire ants [1]): 0.19 mg/g
difference in the effect on oil consumption between the two compounds (fire ants [2]; [9]): no significant difference
Mean oil consumption (fire ants [2]; [10]): 22.83 mg
difference in the effect on oil consumption between the two compounds (fire ants [2]; [11]): no significant difference
Mean oil consumption (fire ants [2]; [12]): 19.95 mg

CCC(=O)CCCCCCCCC(=O)O [10-oxo-dodecanoic acid]
difference in the number of ants between treatment vials and control vials (worker fire ants): significant
difference in oil consumption between treatment and control (fire ants [4]): significant
concentration at which the effect on oil consumption was statistically significant compared to the control oil (fire ants [1]; [13]): 1.14 mg/g
effect of different concentrations on oil consumption (one-way ANOVA) (fire ants [1]; [14]): significant effect
concentration at which the effect on oil consumption was statistically significant compared to the control oil (fire ants [1]; second multiple-choice bioassay (0.07 to about 0.5 mg/g)): 0.51 mg/g
difference in the effect on oil consumption between the two compounds (fire ants [2]; [9]): no significant difference
Mean oil consumption (fire ants [2]; [10]): 23.84 mg
difference in the effect on oil consumption between the two compounds (fire ants [2]; [5]): significant difference
Mean oil consumption (fire ants [2]; [6]): 12.69 mg

CC(=O)CCCCCCCCCC(=O)O [11-oxo-dodecanoic acid]
difference in the number of ants between treatment vials and control vials (worker fire ants): significant difference
difference in oil consumption between treatment and control (fire ants [4]): significant difference
most active / most effective concentration (fire ants [1]; dosage bioassays in soybean oil): around 1.08 mg/g
concentration at which the effect on oil consumption was statistically significant compared to the control oil (fire ants [1]; [13]): 1.08 mg/g
effect of different concentrations on oil consumption (one-way ANOVA) (fire ants [1]; [14]): significant effect
effect on oil consumption (one-way ANOVA) (fire ants [1]; second multiple-choice bioassay: 10-oxo 0.51, 0.28, 0.142, 0.07 mg/g, 11-oxo 0.54, 0.27, 0.14, 0.07 mg/g, control 0.00 mg/g, field, about 2 hours): no significant effect
difference in the effect on oil consumption between the two compounds (fire ants [2]; [11]): no significant difference
Mean oil consumption (fire ants [2]; [12]): 21.23 mg
difference in the effect on oil consumption between the two compounds (fire ants [2]; [7]): significant difference
Mean oil consumption (fire ants [2]; [8]): 15.8 mg

CCC(=O)CCCCCCCCCCC(=O)O [12-oxo-tetradecanoic acid]
difference among treatments and control in oil consumption / feeding preference on soybean oil (one-way ANOVA) (fire ants [1]): no significant difference

CC(=O)CCCCCC=CC(=O)O [9-oxo-2-decenoic acid]
feeding preference of fire ant on soybean oil (fire ants [2]; 0.049 mg/g in soybean oil vs control): significantly improved

CCC(=O)CCCCCCC(=O)O [8-oxo-decanoic acid]
difference among treatments and control in oil consumption / feeding preference on soybean oil (one-way ANOVA) (fire ants [1]): no significant difference

CCC(=O)CCCCCCCCCC(=O)O [11-oxo-tridecanoic acid]
difference among treatments and control in oil consumption / feeding preference on soybean oil (one-way ANOVA) (fire ants [1]): no significant difference
